Measurements: patent US6440948B1, “Thiophene A2A receptor agonists” (CV Therapeutics, Inc., priority 1999, dated 2002)

Target: T1, A2A receptor (Sus scrofa, UniProt K9IW67)
T1 construct: from tissue; host or cells: pig striatum membranes
Assay: affinity for the A2A receptor in a pig striatum membrane prep (displacement of tritiated ZM 241385)
Format: binding
Details: pig striatal membranes, 2 nM tritiated antagonist ZM 241385, 23° C. for 2h, greater than 5 point curve
Description: Compounds of this invention were assayed to determine their affinity for the A2A receptor in a pig striatum membrane prep. Briefly, 0.2 mg of pig striatal membranes were treated with adenosine deaminase (2 U/mL) and 50 mM Tris buffer (pH=7,4) followed by mixing. To the pig membranes was added […] of serially diluted DMSO stock solution of the compounds of this invention at concentrations ranging from 10 nM to 100 μM or the control received […] of DMSO alone, then the: antagonist ZM 241385 in Tris buffer (50 mM, pH of 7.4) was added to achieve a final concentration of 2 nM . After incubation at 23° C. for 2h, then the solutions were filtered using a membrane harvester using multiple washing of the membranes (3x). The filter disks were counted in scintillation cocktail to determine the amount of displacement of tritiated ZM displaced by the compounds of this invention. Greater than a 5 point curve was used to generate Ki's. Compound 13 has a Ki between 1,000 and 10,000 nM.

T1 sequence (K9IW67 1-409): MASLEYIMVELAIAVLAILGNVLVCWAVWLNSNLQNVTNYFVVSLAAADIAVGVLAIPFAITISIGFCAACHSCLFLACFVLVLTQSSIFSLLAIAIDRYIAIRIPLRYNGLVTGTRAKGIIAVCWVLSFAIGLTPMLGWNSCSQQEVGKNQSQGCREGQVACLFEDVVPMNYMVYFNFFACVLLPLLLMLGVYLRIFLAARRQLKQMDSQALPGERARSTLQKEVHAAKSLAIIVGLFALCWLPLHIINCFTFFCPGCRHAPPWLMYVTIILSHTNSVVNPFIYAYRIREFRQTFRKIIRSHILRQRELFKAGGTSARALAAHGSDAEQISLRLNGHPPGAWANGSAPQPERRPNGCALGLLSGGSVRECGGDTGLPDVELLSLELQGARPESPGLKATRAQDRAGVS

With `Cc1ccc(-c2nc(N)c3ncn([C@@H]4O[C@H](CO)[C@@H](O)[C@H]4O)c3n2)s1` [Compound 13, (4S,2R,3R,5R)-2-[6-Amino-2-(5-methyl(2-thienyl))purin-9-yl]-5-(hydroxymethyl)oxolane-3,4-diol] as the molecule, how does the Ki read?
The Ki was 1 to 10 µM.
